Source: ChEMBL document CHEMBL3872221, “Solvent-free synthesis of bacillamide analogues as novel cytotoxic and anti-inflammatory agents” (Eur J Med Chem, 2016)
pIC50: −log10 of the molar value.

Experiments:
[1] = Cytotoxicity against human Jurkat cells assessed as cell survival at 10 uM measured after 48 hrs by MTT assay relative to control; type: functional; settings: read-out: Survival
[2] = Cytotoxicity against human HCT116 cells assessed as cell survival at 10 uM measured after 48 hrs by MTT assay relative to control; type: functional; settings: HCT-116, 48 h, read-out: Survival
[3] = Cytotoxicity against human MDA-MB-231 cells assessed as cell survival at 10 uM measured after 48 hrs by MTT assay relative to control; type: functional; settings: MDA-MB-231, 48 h, read-out: Survival
Rattus norvegicus [4] = test: Antiinflammatory activity in rat assessed as inhibition of carrageenan-induced hind paw edema at 50 mg/Kg, po administered 30 mins before carrageenan challenge measured after 1 hr relative to control; type: functional
Rattus norvegicus [5] = test: Antiinflammatory activity in rat assessed as inhibition of carrageenan-induced hind paw oedema at 50 mg/Kg, po administered 30 mins before carrageenan challenge measured after 2 hrs relative to control; type: functional
Rattus norvegicus [6] = test: Antiinflammatory activity in rat assessed as inhibition of carrageenan-induced hind paw oedema at 50 mg/Kg, po administered 30 mins before carrageenan challenge measured after 3 hrs relative to control; type: functional
Rattus norvegicus [7] = test: Antiinflammatory activity in rat assessed as inhibition of carrageenan-induced hind paw oedema at 50 mg/Kg, po administered 30 mins before carrageenan challenge measured after 4 hrs relative to control; type: functional
[8] = Cytotoxicity against human HCT116 cells assessed as effect on cell viability measured after 48 hrs by MTT assay; type: functional, cell-based; settings: HCT-116, 48 h
[9] = Cytotoxicity against human MDA-MB-231 cells assessed as effect on cell viability measured after 48 hrs by MTT assay; type: functional, cell-based; settings: MDA-MB-231, 48 h
[10] = Cytotoxicity against human Jurkat cells assessed as effect on cell viability measured after 48 hrs by MTT assay; type: functional, cell-based
Jurkat = test: Induction of apoptosis in human Jurkat cells assessed as activation of caspase 3/7 at 1 uM measured after 48 hrs by fluorescence assay relative to control; type: functional

SMILES	viability at 10 µM [1] [%]	viability at 10 µM [2] [%]	viability at 10 µM [3] [%]	inhibition in vivo at 50 mg/kg (Rattus norvegicus [4]) [%]	inhibition in vivo at 50 mg/kg (Rattus norvegicus [5]) [%]	inhibition in vivo at 50 mg/kg (Rattus norvegicus [6]) [%]	inhibition in vivo at 50 mg/kg (Rattus norvegicus [7]) [%]	pIC50 [8]	pIC50 [9]	pIC50 [10]	fold change (FC) (Jurkat)
O=C(NCCc1c[nH]c2ccccc12)c1csc(-c2ccc(Cl)cc2)n1	84.8	99.2	94.8	68	63	62	56				
Cc1ccc(-c2nc(C(=O)NCCc3c[nH]c4ccccc34)cs2)cc1	88.3	108	87.3	81	77	57	70				
Nc1nc(C(=O)NCCc2c[nH]c3ccccc23)cs1	42.3	20.3	24.8	86	74	54	82	5.27	5.52	5.52	4 - 5
Cc1ccc(Nc2nc(C(=O)NCCc3c[nH]c4ccccc34)cs2)cc1				52	57	46	38				
O=C(NCCc1c[nH]c2ccccc12)c1csc(Nc2ccc(F)cc2)n1				83	60	59	42				
O=C(NCCc1c[nH]c2ccccc12)c1csc(Nc2ccccc2)n1	40.1	10.3	20.1	77	73	65	78	7.00	6.22	6.30	4 - 5
O=C(NCCc1c[nH]c2ccccc12)c1csc(-c2cccs2)n1	87.7	93.9	85.4	82	76	58	62				
O=C(NCCc1c[nH]c2ccccc12)c1csc(-c2ccco2)n1	87.2	96.9	84.4	75	69	49	46				
O=C(NCCc1c[nH]c2ccccc12)c1csc(Cc2ccccc2)n1	87.3	101	89	76	57	45	42				
O=C(NCCc1c[nH]c2ccccc12)c1csc(-c2ccccc2)n1	87.3	97.6	88.3	55	62	25	57				
O=C(NCCc1c[nH]c2ccccc12)c1csc(Nc2ccc([N+](=O)[O-])cc2)n1	92.5	72.1	92.3	66	59	57	50				
O=C(NCCc1c[nH]c2ccccc12)c1csc(Nc2ccc(Cl)cc2)n1				49	59	50	41				
Cc1nc(C(=O)NCCc2c[nH]c3ccccc23)cs1	88.1	97	90.4	63	60	44	50				
O=C(NCCc1c[nH]c2ccccc12)c1csc(Nc2ccc(Br)cc2)n1	85.5	55.3	41.5	23	54	49	46				
CC(=O)c1nc(C(=O)NCCc2c[nH]c3ccccc23)cs1 [BACILLAMIDE A]	85.1	81.1	105	58	56	46	42				
COc1cccc2c1C(=O)c1c(O)c3c(c(O)c1C2=O)C[C@@](O)(C(=O)CO)C[C@@H]3O[C@H]1C[C@H](N)[C@H](O)[C@H](C)O1 [DOXORUBICIN]	18.7	23.1	22.1					6.48	6.35		
COc1ccc2c(c1)c(CC(=O)O)c(C)n2C(=O)c1ccc(Cl)cc1 [INDOMETHACIN]				94	84	81	86				
